Patent US5359087A, “Bioactive quisqualic acid analogs” (Regents of the University of Minnesota, priority 1993, dated 1994)
Entries after “also recorded” stand apart in the source; their conditions may differ. Like-named read-outs stand apart in the source and are kept apart here. One block for each compound: values may come before it.

Tests used:
[1] = test system: AMPA/Quisqualate Excitatory Amino Acid Receptor; assay: [3H]AMPA radioligand receptor binding assay; settings: for activity at the AMPA/quisqualate receptor: [3H]AMPA binding; for % Inhibition of [3H]AMPA binding: compound concentration of 10^-5 M
Source text: The assay that was used was a radioligand receptor binding assay using [^3 H]α-amino-3-hydroxy-5-methylisoxazole-4-propionic acid ([^3 H]AMPA) as the radioligand [Murphy et al., Neurochemical Research, 12, 775 (1987)].
^a Percent inhibition of [^3 H]AMPA binding at a compound
concentration of 10^-5 M.

[2] = test system: CA1 neurons (rat hippocampal slices); assay: Inhibition of evoked synaptic field potential of CA1 neurons in hippocampal slices, before and after L-quisqualic acid exposure; format: cell-based, rat (male Sprague-Dawley); settings: for change in IC50 / sensitization after L-quisqualic acid: hippocampal slices after exposure to L-quisqualic acid; for sensitization: fractional increase in potency after L-quisqualic acid (IC50 before vs after); for stimulatory activity prior to treatment with L-quisqualic acid: prior to treatment of hippocampal slices with L-quisqualic acid; for decrease of IC50 values after exposure of the tissue to L-quisqualic acid: IC50 before vs after L-quisqualic acid
Procedure: The IC50 values for inhibition of the evoked synaptic field potential of CA1 neurons of analogs 2-5 were determined both before and after slices were exposed to L-quisqualic acid. Varying degrees of sensitization were observed as shown by the data on Table 2.
Potencies were determined before and after a 4minute exposure of slices t
16 μM Lquisqualic acid. Sensitization refers to the fractional increas
(§1) Transverse hippocampal slices were obtained from 30-100 day-old male Sprague-Dawley rats. Rats were anesthetized with urethane (1.5 g/kg ip) and then decapitated. The brain was removed and placed in ice-cold preparatory medium comprised of 124 mM NaCl, 3.3 mM KCl, 10 mM MgSO4, 0.5 mM CaCl2, 1.2 mM KH2 PO4, 10 mM glucose, and 26 mM NaHCO3 equilibrated with 95% O2 /5% CO2 (pH 7.4). The hippocampus was then isolated and sliced into 500-μm slices using a Campden Instruments VibroSlice microtome. Slices were submerged in preparatory medium at 28° C. which was aerated with 95% O2 /5% CO2 and incubated for 45 min. Slices were then transferred to recording medium comprised of 124 mM NaCl, 3.3 mM KCl, 2.4 mM MgSO4, 2.5 mM CaCl2, 1.2 mM KH2 PO4, 10 mM glucose, and 26 mM NaHCO3 aerated with 95% O2 /5% CO2 (pH 7.4) and incubated at 28° C. for at least 30 min. prior to use.
(§2) Slices were transferred to a small recording chamber containing the recording medium at 34° C. Initially, the upper surface of the slice was exposed to a humid atmosphere containing 95% O2 /5% CO2. Bipolar stimulation (0.1 ms, 10-40 V, 0.1 Hz) was delivered to the Schaffer collateral axons via a pair of Teflon-coated stainless steel wires (0.003 in.). […] The evoked extracellular synaptic field potentials were observed using a storage oscilloscope, and the peak amplitudes were sampled and recorded with a chart recorder. When a suitable field potential was obtained, the slice was submerged in oxygenated medium (34° C.) and the response allowed to stabilize. Test compounds were dissolved in oxygenated medium and were added and removed using a push/pull device allowing a complete change of medium within 30 sec.
Slices were exposed to L-AP4, L-quisqualic acid and the test compound in the following sequence, which is a modification of the previous method: (1) 200 μM L-AP4, (2) test compound, (3) 200 μM L-AP4, (4) 16 μM L-quisqualic acid, (5) 200 μM L-AP4, (6) test compound, (7) 200 μM L-AP4. Slices were washed between each addition of new drug until the peak amplitude of the field potential returned to its pretest level. Full concentration-response curves were determined for the test compound both before and after treatment of slices with L-quisqualic acid. In addition to determining the potency of compounds before and after addition of L-quisqualic acid, this protocol was designed to test for the ability of test compounds to induce the QUIS effect (and thus mimic the effects of L-quisqualic acid) and to test for the "preblocking" and "reversal" effects which have been previously observed only for L-homocysteine sulfinic acid, L-serine O-sulfate, and L-α-aminoadipic acid.
Concentration-response data were obtained by exposing the slice to a concentration of drug which was subthreshold for inhibition of the field potential. Drug concentration was doubled every 4 min until the response had either declined more than 70% or the bath concentration of the drug exceeded 10 mM. […] IC50 values were obtained. by plotting the fractional response remaining at the end of 4 min versus the log of the bath concentration of the drug. The concentration which produced a 50% inhibition of the peak amplitude (IC50) was interpolated from the graph. All reported IC50 values are the mean values for four or more experiments. The results are summarized on Table 2, above.

[3] = test system: QUIS effect in hippocampal slices (CA1 region); assay: Capability to induce, preblock and reverse the QUIS effect in hippocampal slices; format: cell-based, rat (male Sprague-Dawley); settings: sensitization of slices to depolarization by AP4
Procedure: L-Quisqualic acid analogs 2-5 were tested for their capability to induce, preblock and reverse the QUIS effect by the procedures disclosed in the examples hereinbelow. […] Thus, L-quisqualic acid remains the only compound known to induce the QUIS effect. In addition, none of the analogs were capable of preblocking or reversing the sensitization induced by L-quisqualic acid. […] While the precise details are unknown, an induction mechanism shown in FIG. 2, involving multiple sites of interaction such as this, would explain the apparent strict structural requirements for induction, reversal and preblocking of the QUIS effect.
as §1, §2
Slices were exposed to L-AP4, L-quisqualic acid and the test compound in the following sequence, which is a modification of the previous method: (1) 200 μM L-AP4, (2) test compound, (3) 200 μM L-AP4, (4) 16 μM L-quisqualic acid, (5) 200 μM L-AP4, (6) test compound, (7) 200 μM L-AP4. […] Full concentration-response curves were determined for the test compound both before and after treatment of slices with L-quisqualic acid. […]

[4] = test system: CA1 neurons (rat hippocampal slices); settings: data from Ref. 14, cited from earlier work; for IC50: CA1 region; for sensitization: fractional increase in potency
[5] = test system: QUIS effect in CA1 neurons; settings: cited from earlier work; for reversal of the QUIS effect after it has been induced: CA1 neurons; for blocking (preblocking) of the QUIS effect: brief exposure of CA1 neurons, removed prior to L-quisqualic acid
kainate receptor = settings: cited from earlier work
[6] = test system: N-acetyl α-linked acidic dipeptidase; settings: hydrolyzes the brain dipeptide Ac-Asp-Glu-OH; cited from earlier work
[7] = test system: Ca^2+ /Cl^- -dependent glutamic acid uptake system; settings: brain synaptic plasma membrane preparations; cited from earlier work
AMPA receptor = settings: cited from earlier work
metabotropic receptor = settings: cited from earlier work
[8] = test system: CA1 neurons in rat hippocampal slices; settings: cited from earlier work
[9] = Rattus norvegicus, Neuron, 4 min, CA1 region, after 4-minute exposure of slices to 16 μM L-quisqualic acid, read-out: IC50 Values ± SEM after quisqualic acid
[10] = Rattus norvegicus, Neuron, CA1 region of the hippocampus, before exposure to L-quisqualic acid, mean of four or more experiments, read-out: IC50 Values ± SEM before quisqualic acid
[11] = after 4-minute exposure to 16 μM L-quisqualic acid, read-out: IC50 Values after quisqualic acid
[12] = before L-quisqualic acid, read-out: IC50 Values before quisqualic acid

- activity at the AMPA/quisqualate receptor [1]: active at the AMPA/quisqualate receptor
- % Inhibition of [3H]AMPA binding [1]: 55.5%
- IC50 [2, 9]: > 10000 µM
- IC50 [2, 10]: > 10000 µM
SMILES: N[C@@H](CC1CC(=O)NC1=O)C(=O)O (mixture of isomers) [Compound 5A, 2,5-Dioxo-α(S)-amino-3(RS)-pyrrolidinepropanoic Acid]
- change in IC50 / sensitization after L-quisqualic acid [2]: No significant change in IC50 values

- activity at the AMPA/quisqualate receptor [1]: active at the AMPA/quisqualate receptor
- IC50 ([2]; CA1 region of the hippocampus, before exposure to L-quisqualic acid, mean of four or more experiments, read-out: IC50 Values ± SEM before quisqualic acid): 9200 ± 1100 µM
- IC50 ([2]; CA1 region, after 4-minute exposure of slices to 16 μM L-quisqualic acid, read-out: IC50 Values ± SEM after quisqualic acid): 6800 ± 930 µM
SMILES: N[C@@H](CC1CC(=O)NC1=O)C(=O)O (mixture of isomers) [Compound 5B, 2,5-Dioxo-α(S)-amino-3(RS)-pyrrolidinepropanoic Acid]
- sensitization [2]: 1.3
- change in IC50 / sensitization after L-quisqualic acid [2]: No significant change in IC50 values

- Ki ([1]; [3H]AMPA radioligand): 0.37 µM
- % Inhibition of [3H]AMPA binding [1]: 93.5%
- IC50 [2, 9]: 9.5 ± 2.5 µM
- IC50 [2, 10]: 21 ± 4.4 µM
SMILES: N[C@@H](CC1=CC(=O)NC1=O)C(=O)O [Compound 2, (S)-2,5-Dihydro-2,5-dioxo-α-amino-1H-pyrrole-3-propanoic Acid]
- sensitization [2]: 2.2
- stimulatory activity prior to treatment with L-quisqualic acid [2]: high stimulatory activity

- % Inhibition of [3H]AMPA binding [1]: 1.1%
- decrease of IC50 values after exposure of the tissue to L-quisqualic acid [2]: more than 7 fold
- IC50 [2, 9]: 6.8 ± 2.3 µM
- IC50 [2, 10]: 95 ± 19 µM
SMILES: CN1C(=O)C=C(C[C@H](N)C(=O)O)C1=O [Compound 3, (S)-2,5-Dihydro-2,5-dioxo-α-amino-1-methylpyrrole-3-propanoic Acid]
- induction of the QUIS effect [3]: do not induce the QUIS effect
- sensitization [2]: 14.0
- change in IC50 / sensitization after L-quisqualic acid [2]: the slices are sensitized to depolarization by these compounds following exposure to L-quisqualic acid; also recorded: first non-phosphorus compounds to which hippocampal slices are known to become sensitized

- decrease of IC50 values after exposure of the tissue to L-quisqualic acid [2]: more than 7 fold
- IC50 [2, 9]: 375 ± 75 µM
- IC50 [2, 10]: 2900 ± 320 µM
SMILES: N[C@@H](CC1=CC(=O)N(CC(=O)O)C1=O)C(=O)O [Compound 4, (S)-2,5-Dihydro-2,5-dioxo-α-amino-1-(carboxymethyl)pyrrole-3-propanoic Acid]
- induction of the QUIS effect [3]: do not induce the QUIS effect
- sensitization [2]: 7.7
- change in IC50 / sensitization after L-quisqualic acid [2]: the slices are sensitized to depolarization by these compounds following exposure to L-quisqualic acid; also recorded: first non-phosphorus compounds to which hippocampal slices are known to become sensitized

- IC50 [2, 9]: 0.8 ± 0.26 µM
- IC50 [2, 10]: 1.4 ± 0.6 µM
- IC50 ([2]; Rattus norvegicus, Neuron, CA1 region of the rat hippocampus, read-out: IC50, stimulatory effect on CA1 region of the rat hippocampus): 1.4 ± 0.6 µM
SMILES: N[C@@H](CN1CC(=O)NC1=O)C(=O)O [Compound 6]
- induction of the QUIS effect [3]: did not exhibit the QUIS effect
- sensitization [2]: 1.7
- stimulatory activity prior to treatment with L-quisqualic acid [2]: high stimulatory activity

SMILES: N[C@H](CCP(=O)(O)O)C(=O)O [D-AP4, D-2-amino-4-phosphonobutanoic acid]
- IC50 [4, 11]: 152 µM
- IC50 [4, 12]: 2600 µM
- sensitization [4]: 17

SMILES: N[C@H](Cn1oc(=O)[nH]c1=O)C(=O)O [D-quisqualic acid, reference compound]
- IC50 ([2]; Rattus norvegicus, Neuron, 4 min, read-out: IC50 Values ± SEM after quisqualic acid): 10 ± 1.7 µM
- IC50 ([2]; Rattus norvegicus, Neuron, read-out: IC50 Values ± SEM before quisqualic acid): 78 ± 8.5 µM
- sensitization [2]: 7.5
- change in IC50 / sensitization after L-quisqualic acid [2]: slices become sensitized

SMILES: N[C@@H](CCP(=O)(O)O)C(=O)O [L-AP4, L-2-amino-4-phosphonobutanoic acid]
- IC50 [4, 11]: 55 µM
- IC50 [4, 12]: 1800 µM
- sensitization [4]: 33

SMILES: N[C@@H](CCS(=O)O)C(=O)O [L-homocysteinesulfinic acid]
- reversal of the QUIS effect after it has been induced [5]: capable of reversing the QUIS effect
- blocking (preblocking) of the QUIS effect [5]: the QUIS effect can be blocked

SMILES: N[C@@H](Cn1oc(=O)[nH]c1=O)C(=O)O [L-quisqualic acid, L-Quisqualic acid]
- affinity for the kainate receptor (kainate receptor): high affinity
- inhibition of N-acetyl α-linked acidic dipeptidase [6]: inhibits
- inhibition of Ca2+/Cl- -dependent glutamic acid uptake system [7]: inhibits
- affinity for the AMPA receptor (AMPA receptor): high affinity
- affinity for the metabotropic receptor (metabotropic receptor): high affinity
- sensitization of CA1 neurons to depolarization by D- or L-AP4 and related phosphonates [8]: 30-100 fold
- induction of the QUIS effect [3]: only L-quisqualic acid sensitized slices to depolarization by AP4
- IC50 [4, 11]: 2.9 µM
- IC50 [4, 12]: 3.9 µM
- sensitization [4]: 1.3

SMILES: N[C@@H](COS(=O)(=O)O)C(=O)O [L-serine O-sulfate]
- reversal of the QUIS effect after it has been induced [5]: capable of reversing the QUIS effect
- blocking (preblocking) of the QUIS effect [5]: the QUIS effect can be blocked

SMILES: N[C@@H](CCCC(=O)O)C(=O)O [L-α-aminoadipic acid]
- reversal of the QUIS effect after it has been induced [5]: capable of reversing the QUIS effect
- blocking (preblocking) of the QUIS effect [5]: the QUIS effect can be blocked
